According to US4886750A, “Process for the preparation of a pharmaceutically active compound in a stereospecific form of the formula” (priority 1986, dated 1989):

Assays:
[1] = target: T1, E. coli pNAPT-7 cell lysate (Bacillus subtilis, UniProt Q59248); assay: hydrolysis of ester substrates by E. coli pNAPT-7 cell lysate (Example 13); assay type: biochemical, Bacillus subtilis Thai I-8; settings: for enzyme activity on substrate: 25° C., 0.1 MOPS pH 7.5, 0.3 mg ester/ml, 2% Tween, 1 mg/ml BSA, 2 hours
T1 construct: ammonium sulphate-precipitated, ultrafiltered lysate; about 31 kDa, untagged wild type
T1 sequence (Q59248 entry or part of it): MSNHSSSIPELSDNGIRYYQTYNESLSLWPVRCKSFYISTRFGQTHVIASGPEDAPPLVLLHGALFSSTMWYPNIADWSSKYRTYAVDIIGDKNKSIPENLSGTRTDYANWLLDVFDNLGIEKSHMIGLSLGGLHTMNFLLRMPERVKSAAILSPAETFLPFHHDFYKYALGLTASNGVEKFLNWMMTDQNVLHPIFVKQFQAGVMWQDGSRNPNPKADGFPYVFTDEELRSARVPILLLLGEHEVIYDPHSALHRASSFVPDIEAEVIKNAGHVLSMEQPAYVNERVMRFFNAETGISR
Protocol: The E. coli pNAPT-7 cell lysate after ammonium sulphate precipitation and ultrafiltration was tested on the hydrolysis of the ethyl ester of R and S-ibuprofen.
The enzyme activity was assayed at 25° C. in 0.1 MOPS buffer pH 7.5 with 0.3 mg of R or S-ibuprofen ethyl ester/ml, 2% Tween and 1 mg/ml BSA. After 2 hours incubation the reaction was stopped by the addition of acetonitrile.
The reaction mixture was analyzed on a HPLC-reversed phase column (Chrompack Polygosil 60D-10CN, 250×4.6 mm), eluted with 34% acetonitrile, 0.05M phosphoric acid pH 3.0 at a flow rate of 1.5 ml/min. Retention times for R and S-ibuprofen and the ethyl ester of R and S-ibuprofen were 5.98 minutes and 11.08 minutes respectively.

[2] = S-enantiomer vs antipode; cited from earlier work

SMILES | enzyme activity on substrate [1] | S-specificity ([1]; Table 12, ibuprofen ethyl ester) | hydrolysis relative to the hydrolysing activity of the methyl ester of S-naproxen ([1]; tested under the same conditions) | in vitro anti-inflammatory activity of the S-enantiomer relative to its antipode [2]
CCOC(=O)[C@H](C)c1ccc(CC(C)C)cc1 [R-ibuprofen ethyl ester, ethyl 2-(4-isobutyl-1-phenyl) propionate] | 1865 u/l |  |  | 
CCOC(=O)[C@@H](C)c1ccc(CC(C)C)cc1 [S-ibuprofen ethyl ester, ethyl 2-(4-isobutyl-1-phenyl) propionate] | 39600 u/l | 95.3% | 60% | 
COC(=O)[C@@H](C)c1ccc2cc(OC)ccc2c1 [S-naproxen methyl ester, methyl 2-(6-methoxy-2-naphthyl) propionate] | 65000 u/l |  |  | 
CC(C)Cc1ccc([C@H](C)C(=O)O)cc1 [ibuprofen, 2-(4-isobutyl-1-phenyl) propionic acid] |  |  |  | up to 150 times
COc1ccc2cc([C@H](C)C(=O)O)ccc2c1 [naproxen, 2-(6-methoxy-2-naphthyl) propionic acid] |  |  |  | up to 150 times
